In assay [1] the test system is A. baumannii ATCC BAA-1605. Type of assay: cell-based, Acinetobacter baumannii. The settings on record: A. baumannii ATCC BAA-1605; Mueller-Hinton Broth, 18 h. An outline of the steps:
(§1)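 Broth microdilution per CLSI in Mueller–Hinton broth: inocula of 0.5 × 10^5 CFU/mL were exposed to compounds at 0.5–256 µg/mL for 18 h at 37 °C. MIC was the lowest concentration visibly inhibiting growth; run in triplicate.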

Another assay relates to P. aeruginosa ATCC 9027. Type of assay: cell-based, Pseudomonas aeruginosa. The settings on record: P. aeruginosa ATCC 9027; Mueller-Hinton Broth, 18 h. An outline of the steps: as §1
Assay [2] concerns reference strains of S. aureus. It is filed as cell-based, Staphylococcus aureus. The following applies: five reference strains of S. aureus.
For assay [3], the system named is S. aureus ATCC 33591 (MRSA) biofilm. It is filed as cell-based, Staphylococcus aureus. The settings on record: S. aureus ATCC 33591 biofilm, 24 h.
The test system of assay [4] is S. aureus ATCC 6538 biofilm. Type of assay: cell-based, Staphylococcus aureus. The settings on record: S. aureus ATCC 6538 biofilm, 24 h.
Assay [5] relates to S. aureus ATCC 9144 biofilm. Type of assay: cell-based, Staphylococcus aureus. The following applies: S. aureus ATCC 9144 biofilm, 24 h.
Assay [6] has as its system S. aureus ATCC 12598 biofilm. Type of assay: cell-based, Staphylococcus aureus. The following applies: S. aureus ATCC 12598 biofilm, 24 h.
Assay [7] concerns S. aureus ATCC 25923 biofilm. Type of assay: cell-based, Staphylococcus aureus. The settings on record: S. aureus ATCC 25923 biofilm, 24 h.
Another assay has as its system K. aerogenes ATCC 13048. It is filed as cell-based, Klebsiella aerogenes. The following applies: K. aerogenes ATCC 13048; Mueller-Hinton Broth, 18 h. The method in brief:
as §1

The test system of a further assay is S. aureus ATCC 6538. Type of assay: cell-based, Staphylococcus aureus. The following applies: S. aureus ATCC 6538; Mueller-Hinton Broth, 18 h. An outline of the steps: as §1
The next assay relates to S. aureus ATCC 9144. It is filed as cell-based, Staphylococcus aureus. The following applies: S. aureus ATCC 9144; Mueller-Hinton Broth, 18 h. The method in brief:
as §1

The test system of a further assay is S. aureus ATCC 25923. Type of assay: cell-based, Staphylococcus aureus. The following applies: S. aureus ATCC 25923; Mueller-Hinton Broth, 18 h. The method in brief:
as §1

The test system of a further assay is S. aureus ATCC 12598. It is filed as cell-based, Staphylococcus aureus. The following applies: S. aureus ATCC 12598; Mueller-Hinton Broth, 18 h. The method in brief:
as §1

Converted amounts (≈) assume the structure as drawn. Peptide text beside a SMILES is read from it. * marks the point of attachment. Bz = O=C(c1ccccc1)*

Take `CC[C@H](C)[C@H](NC(=O)[C@H](CCCNC(=N)N)NC(=O)[C@H](CCC(N)=O)NC(=O)[C@@H](NC(=O)[C@@H](NC(=O)[C@H](CCCNC(=N)N)NC(=O)[C@H](CCCCN)NC(=O)c1ccccc1)[C@@H](C)CC)C(C)C)C(=O)N[C@@H](CCCCN)C(=O)N[C@@H](CC(=O)O)C(=O)N[C@@H](Cc1ccccc1)C(=O)N[C@@H](CC(C)C)C(=O)N[C@@H](CCCNC(=N)N)C(N)=O` [VIII, Benzoic acid-KR12-NH2] (Bz-KRIVQRIKDFLR-NH2): the MIC in assay [1] is listed as 16 µg/mL (≈ 9.55 µM); in the assay on P. aeruginosa ATCC 9027, 8 µg/mL (≈ 4.78 µM); with K. aerogenes ATCC 13048 it was 16 µg/mL (≈ 9.55 µM); against S. aureus ATCC 6538, 8 µg/mL (≈ 4.78 µM); with S. aureus ATCC 9144, 16 µg/mL (≈ 9.55 µM); against S. aureus ATCC 25923 it was 32 µg/mL (≈ 19.1 µM). The MIC against S. aureus ATCC 12598 was determined as 16 µg/mL (≈ 9.55 µM). In addition, in assay [2], the “GM (geometric mean of the MIC values against S. aureus)” value was 18.38 µg/mL. The MBEC was 32 µg/mL in assay [3]; 32 µg/mL in assay [4]; 16 µg/mL in [5]; 16 µg/mL in assay [6]; 64 µg/mL in [7].

Values taken from publication PMC7036753, “Lipidated Analogs of the LL-37-Derived Peptide Fragment KR12—Structural Analysis, Surface-Active Properties and Antimicrobial Activity” (International Journal of Molecular Sciences, 2020).
